Measured values taken from patent US5304540A, “Pharmaceutical bacteriocin compositions and methods for using the same” (Applied Microbiology, Inc., priority 1993, dated 1994).
Read-outs that look alike come from different tables or passages of the source.

Experiments:
Escherichia coli = assay: Germicidal suspension assay, E. coli; assay type: cell-based; details: for % survival at 1 min: 37° C.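 On all read-outs here: surviving cells were scored as colonies on nutrient agar after 24 h at 37° C, survival given as percent of untreated controls.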
Method: E. coli cells from an overnight Trypticase soy nutrient agar (TSA) were resuspended to a density measured as an absorbance of 1.0 at 600 nm in sterile ddH2 O. The reaction of the cells with each of the bactericidal test formulations analyzed was started by addition of 30 μl of cells to 970 μl of test formulation. The reaction mixture was incubated at 37° C for at least 1 minute and then centrifuged in a microfuge for 1 minute. The cell pellet was washed by resuspension in 1 ml of neutralization buffer. (The neutralization buffer: 50 mM Tris-HCl, pH 7.0, 5 mM MgSO4, 20 mM CaCl2, 0.1 M NaCl and 0.1% gelatin was prepared by first making Tris buffer and adjusting the pH. The salts and gelatin were then added and the solution stirred with heat until the solution was clear. The solution was then autoclaved for 20 min. The neutralization buffer was used without dilution.) The cells were centrifuged in a microfuge for 1 minute and resuspended in 1 ml of neutralization buffer. The viable count was determined by spreading 100 μl of bacterial suspension and serial dilutions thereof in neutralization buffer on nutrient agar and scoring surviving colonies after 24 h at 37° C. Percent survival relative to untreated controls was calculated from the scored values.

[1] = 0.1% w/v acetate pH 3.5, nisin 100 μg/ml and/or EDTA 1.0 mM where present, initial 2 × 10^7 cfu/ml
[2] = 0.1% w/v lactate pH 3.5, nisin 100 μg/ml and/or EDTA 1.0 mM where present, initial 5 × 10^7 cfu/ml
[3] = 0.1% w/v succinate pH 3.5, nisin 100 μg/ml and/or EDTA 1.0 mM where present, initial 3.4 × 10^6 cfu/ml
[4] = 0.3% w/v acetate pH 3.5, nisin 100 μg/ml and/or EDTA 1.0 mM where present, initial 2 × 10^7 cfu/ml
[5] = 0.3% w/v lactate pH 3.5, nisin 100 μg/ml and/or EDTA 1.0 mM where present, initial 5 × 10^7 cfu/ml
[6] = 0.3% w/v succinate pH 3.5, nisin 100 μg/ml and/or EDTA 1.0 mM where present, initial 3.4 × 10^6 cfu/ml
[7] = 1.0% w/v acetate pH 3.5, nisin 100 μg/ml and/or EDTA 1.0 mM where present, initial 2 × 10^7 cfu/ml
[8] = 1.0% w/v lactate pH 3.5, nisin 100 μg/ml and/or EDTA 1.0 mM where present, initial 5 × 10^7 cfu/ml
[9] = 1.0% w/v succinate pH 3.5, nisin 100 μg/ml and/or EDTA 1.0 mM where present, initial 3.4 × 10^6 cfu/ml
[10] = 3.0% w/v acetate pH 3.5, nisin 100 μg/ml and/or EDTA 1.0 mM where present, initial 2 × 10^7 cfu/ml
[11] = 3.0% w/v lactate pH 3.5, nisin 100 μg/ml and/or EDTA 1.0 mM where present, initial 5 × 10^7 cfu/ml
[12] = 3.0% w/v succinate pH 3.5, nisin 100 μg/ml and/or EDTA 1.0 mM where present, initial 3.4 × 10^6 cfu/ml

SMILES: O=C(O)CC(O)(CC(=O)O)C(=O)O [Citrate]
- % survival at 5 min (Helicobacter pylori; strain ATCC43504, 0.1% citrate adjusted to pH 2.5, nisin 100 μg/ml where present, 37° C.): 0.14%
- % survival at 5 min (Helicobacter pylori; strain ATCC43504, 0.1% citrate adjusted to pH 3.0, nisin 100 μg/ml where present, 37° C.): < 0.004%
- % survival at 5 min (Helicobacter pylori; strain ATCC43504, 0.1% citrate adjusted to pH 3.5, nisin 100 μg/ml where present, 37° C.): < 0.004%
- % survival at 5 min (Helicobacter pylori; strain ATCC43504, 0.1% citrate adjusted to pH 4.0, nisin 100 μg/ml where present, 37° C.): 0.36%
- % survival at 5 min (Helicobacter pylori; strain ATCC43504, 0.1% citrate adjusted to pH 5.0, nisin 100 μg/ml where present, 37° C.): 68.5%
- % survival at 5 min (Helicobacter pylori; strain ATCC43504, 0.3% citrate adjusted to pH 2.5, nisin 100 μg/ml where present, 37° C.): 0.027%
- % survival at 5 min (Helicobacter pylori; strain ATCC43504, 0.3% citrate adjusted to pH 3.0, nisin 100 μg/ml where present, 37° C.): < 0.027%
- % survival at 5 min (Helicobacter pylori; strain ATCC43504, 0.3% citrate adjusted to pH 3.5, nisin 100 μg/ml where present, 37° C.): 29.7%
- % survival at 5 min (Helicobacter pylori; strain ATCC43504, 0.3% citrate adjusted to pH 4.0, nisin 100 μg/ml where present, 37° C.): 17.6%
- % survival at 5 min (Helicobacter pylori; strain ATCC43504, 0.3% citrate adjusted to pH 5.0, nisin 100 μg/ml where present, 37° C.): 100%
- % survival at 5 min (Helicobacter pylori; strain ATCC43504, pH 5.0, citrate 0.1% w/v, nisin 100 μg/ml where present, first of two experiments (initial 1.40 × 10^5 cfu/ml)): 83.6%
- % survival at 5 min (Helicobacter pylori; strain ATCC43504, pH 5.0, citrate 0.1% w/v, nisin 100 μg/ml where present, second of two experiments (initial 3.26 × 10^5 cfu/ml)): 25.8%
- % survival at 5 min (Helicobacter pylori; strain ATCC43504, pH 5.0, citrate 0.3% w/v, nisin 100 μg/ml where present, first of two experiments (initial 1.40 × 10^5 cfu/ml)): 42.9%
- % survival at 5 min (Helicobacter pylori; strain ATCC43504, pH 5.0, citrate 0.3% w/v, nisin 100 μg/ml where present, second of two experiments (initial 3.26 × 10^5 cfu/ml)): 4.39%
- % survival at 5 min (Helicobacter pylori; strain ATCC43504, pH 5.0, citrate 1.0% w/v, nisin 100 μg/ml where present, first of two experiments (initial 1.40 × 10^5 cfu/ml)): 22.1%
- % survival at 5 min (Helicobacter pylori; strain ATCC43504, pH 5.0, citrate 1.0% w/v, nisin 100 μg/ml where present, second of two experiments (initial 3.26 × 10^5 cfu/ml)): 50.9%
- % survival at 5 min (Helicobacter pylori; strain ATCC43504, pH 7.0, citrate 0.1% w/v, nisin 100 μg/ml where present, initial 9.62 × 10^4 cfu/ml): 17.7%
- % survival at 5 min (Helicobacter pylori; strain ATCC43504, pH 7.0, citrate 0.3% w/v, nisin 100 μg/ml where present, initial 9.62 × 10^4 cfu/ml): 8.94%
- % survival at 5 min (Helicobacter pylori; strain ATCC43504, pH 7.0, citrate 1.0% w/v, nisin 100 μg/ml where present, initial 9.62 × 10^4 cfu/ml): 0.82%
- % survival at 5 min (Helicobacter pylori; strain ATCC43579, 0.1% citrate adjusted to pH 2.5, nisin 100 μg/ml where present, 37° C.): < 5.0 × 10^-4%
- % survival at 5 min (Helicobacter pylori; strain ATCC43579, 0.1% citrate adjusted to pH 3.0, nisin 100 μg/ml where present, 37° C.): 1.1 × 10^-3%
- % survival at 5 min (Helicobacter pylori; strain ATCC43579, 0.1% citrate adjusted to pH 3.5, nisin 100 μg/ml where present, 37° C.): 0.18%
- % survival at 5 min (Helicobacter pylori; strain ATCC43579, 0.1% citrate adjusted to pH 4.0, nisin 100 μg/ml where present, 37° C.): 9.56%
- % survival at 5 min (Helicobacter pylori; strain ATCC43579, 0.1% citrate adjusted to pH 5.0, nisin 100 μg/ml where present, 37° C.): 97.2%
- % survival at 5 min (Helicobacter pylori; strain ATCC43579, pH 5.0, 0.1% citrate, nisin 0, 37° C., initial 3.19 × 10^7 cfu/ml): 86.2%
- % survival at 5 min (Helicobacter pylori; strain ATCC43579, pH 5.0, citrate 0.1% w/v, nisin 100 μg/ml where present, initial 1.04 × 10^4 cfu/ml): 100%
- % survival at 5 min (Helicobacter pylori; strain ATCC43579, pH 5.0, citrate 0.3% w/v, nisin 100 μg/ml where present, initial 1.04 × 10^4 cfu/ml): 100%
- % survival at 5 min (Helicobacter pylori; strain ATCC43579, pH 5.0, citrate 1.0% w/v, nisin 100 μg/ml where present, initial 1.04 × 10^4 cfu/ml): 100%
- % survival at 5 min (Helicobacter pylori; strain ATCC43579, pH 7.0, citrate 0.1% w/v, nisin 100 μg/ml where present): 12.1%
- % survival at 5 min (Helicobacter pylori; strain ATCC43579, pH 7.0, citrate 0.3% w/v, nisin 100 μg/ml where present): 0.26%
- % survival at 5 min (Helicobacter pylori; strain ATCC43579, pH 7.0, citrate 1.0% w/v, nisin 100 μg/ml where present): 0.02%
- % survival at 1 min (Escherichia coli; 0.1% w/v citrate pH 3.5, nisin 100 μg/ml and/or EDTA 1.0 mM where present, initial 5 × 10^7 cfu/ml): 100%
- % survival at 1 min (Escherichia coli; 0.3% w/v citrate pH 3.5, nisin 100 μg/ml and/or EDTA 1.0 mM where present, initial 5 × 10^7 cfu/ml): 56.3%
- % survival at 1 min (Escherichia coli; 1.0% w/v citrate pH 3.5, nisin 100 μg/ml and/or EDTA 1.0 mM where present, initial 5 × 10^7 cfu/ml): 72.9%
- % survival at 1 min (Escherichia coli; 3.0% w/v citrate pH 3.5, nisin 100 μg/ml and/or EDTA 1.0 mM where present, initial 5 × 10^7 cfu/ml): 100%
- survival of E. coli on exposure to the agent by itself (Escherichia coli): unaffected

SMILES: O=C(O)CN(CCN(CC(=O)O)CC(=O)O)CC(=O)O [EDTA]
- % survival at 5 min (Helicobacter pylori; strain ATCC43504, EDTA 1.0 mM, nisin 100 μg/ml where present, pH 2.5, first of two experiments (initial 8.6 × 10^4 cfu/ml)): 0.023%
- % survival at 5 min (Helicobacter pylori; strain ATCC43504, EDTA 1.0 mM, nisin 100 μg/ml where present, pH 2.5, second of two experiments (initial 9.82 × 10^5 cfu/ml)): 0.013%
- % survival at 5 min (Helicobacter pylori; strain ATCC43504, EDTA 1.0 mM, nisin 100 μg/ml where present, pH 3.0, first of two experiments (initial 8.6 × 10^4 cfu/ml)): < 0.021%
- % survival at 5 min (Helicobacter pylori; strain ATCC43504, EDTA 1.0 mM, nisin 100 μg/ml where present, pH 3.0, second of two experiments (initial 9.82 × 10^5 cfu/ml)): < 0.001%
- % survival at 5 min (Helicobacter pylori; strain ATCC43504, EDTA 1.0 mM, nisin 100 μg/ml where present, pH 3.5, first of two experiments (initial 8.6 × 10^4 cfu/ml)): 94.2%
- % survival at 5 min (Helicobacter pylori; strain ATCC43504, EDTA 1.0 mM, nisin 100 μg/ml where present, pH 3.5, second of two experiments (initial 9.82 × 10^5 cfu/ml)): 0.015%
- % survival at 5 min (Helicobacter pylori; strain ATCC43504, EDTA 1.0 mM, nisin 100 μg/ml where present, pH 4.0, first of two experiments (initial 8.6 × 10^4 cfu/ml)): 11.6%
- % survival at 5 min (Helicobacter pylori; strain ATCC43504, EDTA 1.0 mM, nisin 100 μg/ml where present, pH 4.0, second of two experiments (initial 9.82 × 10^5 cfu/ml)): 16.5%
- % survival at 5 min (Helicobacter pylori; strain ATCC43504, EDTA 1.0 mM, nisin 100 μg/ml where present, pH 5.0, first of two experiments (initial 8.6 × 10^4 cfu/ml)): 10.0%
- % survival at 5 min (Helicobacter pylori; strain ATCC43504, EDTA 1.0 mM, nisin 100 μg/ml where present, pH 5.0, second of two experiments (initial 9.82 × 10^5 cfu/ml)): 100%
- % survival at 5 min (Helicobacter pylori; strain ATCC43526, pH 7.0, EDTA 1.0 mM, nisin 100 μg/ml where present, initial 3.40 × 10^4 cfu/ml): 94.1%
- % survival at 5 min (Helicobacter pylori; strain ATCC43526, pH 7.0, EDTA 10 mM, nisin 100 μg/ml where present, initial 3.40 × 10^4 cfu/ml): 21.0%
- % survival at 5 min (Helicobacter pylori; strain ATCC43526, pH 7.0, EDTA 100 mM, nisin 100 μg/ml where present, initial 3.40 × 10^4 cfu/ml): 1.62%
- % survival at 5 min (Helicobacter pylori; strain ATCC43579, pH 5.0, EDTA 1.0 mM, nisin 100 μg/ml where present, initial 2.04 × 10^5 cfu/ml): 13.63%
- % survival at 5 min (Helicobacter pylori; strain ATCC43579, pH 5.0, EDTA 10 mM, nisin 100 μg/ml where present, initial 2.04 × 10^5 cfu/ml): 8.82%
- % survival at 5 min (Helicobacter pylori; strain ATCC43579, pH 5.0, EDTA 100 mM, nisin 100 μg/ml where present, initial 2.04 × 10^5 cfu/ml): 0.43%
- % survival at 1 min (Escherichia coli; [1]): 40%
- % survival at 1 min (Escherichia coli; [2]): 5.1%
- % survival at 1 min (Escherichia coli; [3]): 56.8%
- % survival at 1 min (Escherichia coli; [4]): 25%
- % survival at 1 min (Escherichia coli; [5]): 0.46%
- % survival at 1 min (Escherichia coli; [6]): 63.6%
- % survival at 1 min (Escherichia coli; [7]): 25%
- % survival at 1 min (Escherichia coli; [8]): 0.91%
- % survival at 1 min (Escherichia coli; [9]): 46.2%
- % survival at 1 min (Escherichia coli; [10]): 10.7%
- % survival at 1 min (Escherichia coli; [11]): 1.58%
- % survival at 1 min (Escherichia coli; [12]): 43.2%
- survival of E. coli on exposure to the agent by itself (Escherichia coli): unaffected
- % survival at 1 min (Escherichia coli; pH 2.0, 20 mM Na acetate buffer, nisin 100 μg/ml and/or EDTA 1.0 mM, initial 4 × 10^7 cfu/ml): 0.07%
- % survival at 1 min (Escherichia coli; pH 3.0, 20 mM Na acetate buffer, nisin 100 μg/ml and/or EDTA 1.0 mM, initial 4 × 10^7 cfu/ml): 5.41%

SMILES: O=C(O)CCC(=O)O [Succinate, succinate]
- % survival at 1 min (Escherichia coli; [3]): 85.5%
- % survival at 1 min (Escherichia coli; [6]): 29.9%
- % survival at 1 min (Escherichia coli; [9]): 36.7%
- % survival at 1 min (Escherichia coli; [12]): 13.9%

SMILES: CC(O)C(=O)O (stereo not shown) [Lactate, lactate]
- % survival at 1 min (Escherichia coli; [2]): 22.2%
- % survival at 1 min (Escherichia coli; [5]): 46.7%
- % survival at 1 min (Escherichia coli; [8]): 35.6%
- % survival at 1 min (Escherichia coli; [11]): 4.2%

SMILES: CC(=O)O [Acetate]
- % survival at 1 min (Escherichia coli; [1]): 55%
- % survival at 1 min (Escherichia coli; [4]): 80%
- % survival at 1 min (Escherichia coli; [7]): 90%
- % survival at 1 min (Escherichia coli; [10]): 10.1%
